From patent US20230416221A1, “DIHYDROISOQUINOLINONE AND ISOINDOLINONE DERIVATIVES AND USES THEREOF” (HEFEI INSTITUTES OF PHYSICAL SCIENCE, CHINESE ACADEMY OF …, priority 2020, published 2023)
Where two headings read alike, the source gives them in different places.

How the values were obtained:
[1] = target: CDK9-L156F mut/CyclinT1 mutant protein (Homo sapiens (Human), UniProt P50750, L156F); assay: Enzyme activity assay of CDK9 mutant protein inhibition in vitro, CDK9-L156F mut/CyclinT1
[2] = tested on: MOLM13 drug resistant strain MOLM13 BR1; assay: Growth of drug resistant strain MOLM13 BR1, Cell Titer-Glo GI50; assay type: cell-based; conditions: Homo sapiens, MOLM-13, BAY1251152-resistant MOLM13 strain, 72 hours
[3] = tested on: acute myeloid leukemia cell line MOLM13; assay: Growth of cancer cells, Cell Titer-Glo GI50, MOLM13; assay type: cell-based; conditions: incubated for 72 hours, Cell Titer-Glo
[4] = tested on: acute myeloid leukemia cell line MOLM14; assay: Growth of cancer cells, Cell Titer-Glo GI50, MOLM14; assay type: cell-based; conditions: incubated for 72 hours, Cell Titer-Glo, read-out: GI50 MOLM 14
[5] = tested on: human chronic myeloid leukemia cell K562; assay: Growth of cancer cells, Cell Titer-Glo GI50, K562; assay type: cell-based; conditions: incubated for 72 hours, Cell Titer-Glo, read-out: GI50 K562
CDK9/CyclinT1 protein = CDK9/CyclinT1 protein (Homo sapiens (Human), UniProt P50750); assay: Enzyme activity assay of CDK9 protein inhibition in vitro, CDK9/CyclinT1
Sequence of CDK9/CyclinT1 protein (P50750 whole entry): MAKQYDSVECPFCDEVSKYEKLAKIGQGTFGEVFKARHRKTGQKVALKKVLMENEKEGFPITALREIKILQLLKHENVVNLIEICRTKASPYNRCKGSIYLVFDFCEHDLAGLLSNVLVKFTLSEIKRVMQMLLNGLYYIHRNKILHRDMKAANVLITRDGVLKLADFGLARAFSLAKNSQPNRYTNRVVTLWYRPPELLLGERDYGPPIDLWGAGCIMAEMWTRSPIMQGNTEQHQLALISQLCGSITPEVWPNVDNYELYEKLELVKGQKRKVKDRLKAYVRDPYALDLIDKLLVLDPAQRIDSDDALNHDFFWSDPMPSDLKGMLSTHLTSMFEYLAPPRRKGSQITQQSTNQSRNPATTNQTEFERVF
Sequence of CDK9/CyclinT1 protein (O60563 whole entry partner): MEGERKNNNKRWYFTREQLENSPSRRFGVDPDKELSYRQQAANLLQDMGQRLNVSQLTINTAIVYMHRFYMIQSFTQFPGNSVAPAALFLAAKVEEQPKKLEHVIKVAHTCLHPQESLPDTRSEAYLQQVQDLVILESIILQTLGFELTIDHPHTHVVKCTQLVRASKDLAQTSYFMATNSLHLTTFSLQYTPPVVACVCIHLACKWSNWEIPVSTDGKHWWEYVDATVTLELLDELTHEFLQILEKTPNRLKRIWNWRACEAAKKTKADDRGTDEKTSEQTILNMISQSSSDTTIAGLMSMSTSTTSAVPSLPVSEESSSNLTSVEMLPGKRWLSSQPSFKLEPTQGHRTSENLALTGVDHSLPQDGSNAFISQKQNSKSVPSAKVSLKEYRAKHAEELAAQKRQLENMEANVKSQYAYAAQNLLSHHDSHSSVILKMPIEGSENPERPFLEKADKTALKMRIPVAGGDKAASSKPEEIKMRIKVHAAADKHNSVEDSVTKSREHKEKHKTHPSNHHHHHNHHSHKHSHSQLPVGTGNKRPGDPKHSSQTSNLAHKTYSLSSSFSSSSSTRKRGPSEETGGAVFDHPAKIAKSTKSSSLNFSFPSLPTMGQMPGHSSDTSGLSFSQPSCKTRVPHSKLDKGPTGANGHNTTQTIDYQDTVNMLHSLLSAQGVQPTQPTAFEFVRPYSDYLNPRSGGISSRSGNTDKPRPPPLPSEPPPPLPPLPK

[6] = tested on: acute myeloid leukemia cell line MV4-11; assay: Growth of cancer cells, Cell Titer-Glo GI50, MV4-11; conditions: read-out: GI50 MV4-11
[7] = tested on: HepG2 drug resistant strain HepG2 CDK9 KI C20-1; assay: Growth of drug resistant strain HepG2 KI C20-1, Cell Titer-Glo GI50; assay type: cell-based, human; conditions: for GI50 HepG2 CDK9 KI C20-1: CDK9 resistant mutation knockin HepG2 monoclone, 72 hours, Cell Titer-Glo
[8] = tested on: human liver cancer cell line HepG2; assay: Growth of cancer cells, Cell Titer-Glo GI50, HepG2; assay type: cell-based; conditions: incubated for 72 hours
[9] = tested on: human colorectal cancer cell HCT116; assay: Growth of cancer cells, Cell Titer-Glo GI50, HCT116; assay type: cell-based
[10] = tested on: gastrointestinal stromal tumor GIST-T1; conditions: read-out: GI50 GIST-T1; incubated for 72 hours, Cell Titer-Glo
lymphoma cell WSU-DLCL2 [11] = conditions: read-out: GI50 WSU-DLCL2; incubated for 72 hours, Cell Titer-Glo
[12] = tested on: human colorectal cancer cell DLD1; assay: Growth of cancer cells, Cell Titer-Glo GI50, DLD1; assay type: cell-based
[13] = tested on: cervical cancer cell HeLa; conditions: read-out: GI50 HeLa; incubated for 72 hours, Cell Titer-Glo
[14] = tested on: human ovarian granulosa tumor cell COV434; assay: Growth of cancer cells, Cell Titer-Glo GI50, COV434; assay type: cell-based; conditions: read-out: GI50 COV434
CDK9 = CDK9 (Homo sapiens (Human), UniProt P50750); assay: Binding activity of compound and CDK9, split luciferase system (C37-CL / CDK9-NL) in HEK-293T cells; assay type: cell-based
Sequence of CDK9 (P50750 whole entry, the tested form may be a part): as the sequence (P50750 whole entry) above
Excerpt: The plasmid of split luciferase system was constructed by molecular cloning technology. The N-terminal domain (NLuc) and C-terminal domain (CLuc) of luciferase were respectively cloned and inserted into the vector PCDNA3 to construct NLuc-PCDNA3 and CLuc-PCDNA3 vectors, and the polyclonal sites were reserved at both ends of the sequence. Then CDC37 and CDK9 were cloned into the corresponding vectors to construct C37-CL and CDK9-NL vectors. C37-CL plasmid sequence is shown in SEQ ID NO. 1. CDK9-NL plasmid sequence is shown in SEQ ID NO. 2.
The mixed transfection complex was added to the 10 cm cell culture dish and cultured at 37° C. and 5% CO2 for 24 hours. […] After counting, the transfected cells were placed in a 96-well white Corning cell culture plate (purchased from Corning, U.S.) with 100 μL, 5000 cells/well. After 12 hours, the medium was removed from the 96-well plate and 100 μL culture medium containing corresponding concentration of the testing compound was added, which was cultured continuously for 12 hours. After 12 hours, 20 μL Luciferase-Glo (purchased from Promega, U.S.) testing reagent was added to each well. After mixing, the […] value was detected using a microplate reader.

[15] = tested on: cervical cancer cell HeLa; assay: cells; conditions: Homo sapiens, 72 h, read-out: GI50 HeLa
[16] = tested on: histiocytic lymphoma U-937; assay: Growth of cancer cells, Cell Titer-Glo GI50, U937; assay type: cell-based; conditions: Homo sapiens, U-937; incubated for 72 hours, Cell Titer-Glo; read-out: GI50 U937
[17] = tested on: gastrointestinal stromal tumor GIST-T1; assay: cells; conditions: Homo sapiens, GISTT1, 72 h, read-out: GI50 GIST-T1
lymphoma cell WSU-DLCL2 [18] = assay: cells; conditions: Homo sapiens, WSUDLCL2, 72 h, read-out: GI50 WSU-DLCL2
[19] = tested on: acute myeloid leukemia cell line OCI-AML-3; assay: Growth of cancer cells, Cell Titer-Glo GI50, OCI-AML-3; assay type: cell-based; conditions: Homo sapiens; incubated for 72 hours, Cell Titer-Glo; read-out: GI50 AML3
[20] = Homo sapiens, MOLM-13, Table 1, read-out: GI50 MOLM 13
[21] = Homo sapiens, MOLM-13, Table 2, read-out: GI50 MOLM13
[22] = incubated for 72 hours, Cell Titer-Glo
[23] = Homo sapiens, HCT-116, incubated for 72 hours
[24] = Homo sapiens, DLD-1, incubated for 72 hours

Sequence of CDK9-L156F mut/CyclinT1 mutant protein (P50750 whole entry L156F): as the sequence (P50750 whole entry) above, with L156F counted along it
Sequence of CDK9-L156F mut/CyclinT1 mutant protein (O60563 whole entry partner): as the sequence (O60563 whole entry partner) above

| SMILES | GI50 [2] [nM] | GI50 [3, 20] [nM] | GI50 [3, 21] [nM] | GI50 ([4]; Homo sapiens, MOLM-14) [nM] | GI50 ([5]; Homo sapiens, K562) [nM] | GI50 ([6]; Homo sapiens, MV4-11, 72 h) [nM] | GI50 HepG2 CDK9 KI C20-1 [7] [nM] | GI50 ([8]; Table 3) [nM] | further results |
| --- | --- | --- | --- | --- | --- | --- | --- | --- | --- |
| Cc1ccc(Nc2nccc(-c3ccc4c(c3)C(C)(C)CNC4=O)n2)cc1N1CCN(C)CC1 [Compound 82, 4,4-methyl-6-(2-((4-methyl-3-(4-methylpiperazin-1-yl)phenyl)amino)pyrimidin-4-yl)-dihydroisoquinolin-1(2H)-one] | 1.71 | < 1 | 0.845 | 0.8 | 26 |  |  |  | IC50 [1]: 105 nM; IC50 (CDK9/CyclinT1 protein): 2.6 nM |
| COc1cc(F)ccc1-c1cc(Nc2cc(CS(C)(=N)=O)ccn2)ncc1F (stereo not drawn) [BAY1251152, reference compound] | 1190 |  | 38 | 40 |  | 27 | >1000 | 36.1 | drug resistance on the drug resistant strain of liver cancer cell HepG2 ([7]; result in words): obvious drug resistance |
| COC[C@@H](C)NC1CCC(Nc2cc(-c3csc(NCC4(C#N)CCOCC4)n3)c(Cl)cn2)CC1 (stereo partly drawn) [JSH-009, reference compound] |  |  |  |  |  |  |  |  | GI50 ([9]; incubated for 72 hours): 23 nM; GI50 [6, 22]: 6 nM; GI50 [10]: 34 nM; GI50 (lymphoma cell WSU-DLCL2 [11]): 16 nM; GI50 ([12]; incubated for 72 hours): 106 nM; GI50 ([3]; Table 1, read-out: GI50 MOLM 13): 4 nM; GI50 [13]: 18 nM; GI50 [4]: 4 nM; GI50 [5]: 9 nM; IC50 (CDK9/CyclinT1 protein; read-out: CDK9/CyclinT1 Protein activity (IC50)): 29 nM; GI50 [14, 22]: 30 nM |
| CN1CCN(c2cccc(Nc3nccc(-c4ccc5c(c4)C(C)(C)CNC5=O)n3)c2)CC1 [Compound 37, 4,4-dimethyl-6-(2-((3-(4-methylpiperazin-1-yl)phenyl)amino)pyrimidin-4-yl)-3,4-dihydroisoquinolin-1(2H)-one] | 3.05 | < 1 |  | < 1 | 31 | < 1 | 74.8 | 27.8 | IC50 (CDK9): 49 nM |
| COCCNC1CCC(Nc2nccc(-c3ccc4c(c3)C(C(C)C)(C(C)C)CNC4=O)n2)CC1 (stereo not drawn) [Compound 14, 4,4-diisopropyl-6-(2-(((1r,4r)-4-((2-methoxyethyl)amino)cyclohexyl)amino)pyrimidin-4-yl)-3,4-dihydroisoquinolin-1(2H)-one] | 8.26 |  | 7.08 |  | 26 | 17 |  |  | GI50 [9, 23]: 12 nM; GI50 [12, 24]: 63 nM; GI50 ([8]; Table 1): 23 nM |
| CCc1cnn2c(NCc3ccc[n+]([O-])c3)cc(N3CCCC[C@H]3CCO)nc12 [Dinaciclib, reference compound] |  | 11 |  | 18 | 53 | 22 |  |  | GI50 [9, 23]: 15 nM; GI50 [15]: 16.5 nM; GI50 [16]: 5 nM; GI50 [17]: 15 nM; GI50 [12, 24]: 30 nM; GI50 (lymphoma cell WSU-DLCL2 [18]): 13 nM; GI50 [19]: 4 nM; GI50 ([14]; Homo sapiens, COV434, 72 h): 8 nM |
| COCCN[C@H]1CC[C@H](Nc2nccc(-c3ccc4c(c3)C(C(C)C)(C(C)C)CNC4=O)n2)CC1 [Compound 14, 4,4-diisopropyl-6-(2-(((1r,4r)-4-((2-methoxyethyl)amino)cyclohexyl)amino)pyrimidin-4-yl)-3,4-dihydroisoquinolin-1(2H)-one] |  |  |  |  |  |  |  |  | IC50 [1]: 98.6 nM |
| CC1(C)CNC(=O)c2ccc(-c3ccnc(Nc4cccc(N5CCCNCC5)c4)n3)cc21 [Compound 35, 6-(2-((3-(1,4-homopiperazin-1-yl)phenyl)amino)pyrimidin-4-yl)-4,4-dimethyl-3,4-dihydroisoquinolin-1(2H)-one] | 1.69 | < 1 |  |  | 25 | < 1 | 138.5 | 87.4 | GI50 [16]: 23 nM; IC50 (CDK9): 300 nM; GI50 [19]: 33 nM; GI50 ([14]; Homo sapiens, COV434, 72 h): < 1 nM |
